Measured values reported in patent US10010400B2, “Devices and methods for local delivery of drug to upper urinary tract” (TARIS Biomedical LLC, priority 2015, dated 2018).

Experiment: in vitro osmotic pumping of methylene blue up a capillary tube from a closed drug reservoir
Assay type: physicochemical
Details: reservoir with urea and lactose tablets in 125 mL degassed, deionized water; 36 cm capillary tube extended vertically
Description: Another experimental system was designed to simulate a ureteral drug delivery device having a flexible elongate body with a bladder end portion and a kidney end portion, a drug reservoir located at the bladder end portion which contains a drug and has a semi-permeable wall, and a drug lumen (capillary tube) having a first opening into the drug reservoir and a second end opening at the kidney end portion of the flexible elongate body. The ureteral drug delivery device used in the experiments was configured to permit water to enter the drug reservoir through the semi-permeable wall to create an osmotic pressure to pump the drug from the drug reservoir through the capillary tube and out of the device through the second end opening.
In this experiment, a drug reservoir similar to that illustrated in FIG. 11A was prepared. In particular, a spacer end piece was adhered using silicone adhesive within a tubular silicone housing. 10.5 cm of urea tablets, 4 cm of lactose tablets, and one tablet containing methylene blue were loaded into the tubular housing. A capillary tube (36 cm) having two spacers disposed in a spaced relationship at one end was slid into the tubular housing of the drug reservoir, adjacent the methylene blue tablet. […]

## CN(C)c1ccc2nc3ccc(=[N+](C)C)cc-3sc2c1 [methylene blue]
  movement of the dye up the capillary tube: observed
